Source: patent US8372837B2, “Pyridone and pyridazone analogues as GPR119 modulators” (Bristol-Myers Squibb Company, priority 2008, dated 2013)

Molecular target: T1, hGPR119 (Homo sapiens, UniProt Q8TDV5)
T1 construct: expressed in transfected cells; host or cells: Flp-In T-REx 293 (tetracycline-inducible)
T1 sequence (Q8TDV5 1-335): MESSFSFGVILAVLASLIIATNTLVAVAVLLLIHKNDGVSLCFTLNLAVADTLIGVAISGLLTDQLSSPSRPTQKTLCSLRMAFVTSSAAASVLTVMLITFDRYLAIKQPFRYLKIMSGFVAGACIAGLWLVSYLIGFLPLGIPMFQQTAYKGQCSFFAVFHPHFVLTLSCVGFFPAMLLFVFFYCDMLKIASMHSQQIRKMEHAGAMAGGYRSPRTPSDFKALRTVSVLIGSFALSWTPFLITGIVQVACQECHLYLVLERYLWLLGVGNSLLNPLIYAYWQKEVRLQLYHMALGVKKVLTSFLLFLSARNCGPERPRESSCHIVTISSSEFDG
Experiment: Human Tet-inducible cAMP assay
Type: cell-based
Conditions: Flp-In T-REx 293 tetracycline inducible cells expressing GPR119; cAMP by HITHUNTER kit; 1 hour incubation
Description: The in vitro modulation of recombinant human GPR119 was determined as follows.
Human Tet-Inducible cAMP Assay
Cell lines expressing GPR119 are generated using the Flp-In T-REx 293 tetracycline inducible gene expression system are cultured in culture medium comprising the following components: DMEM#11965, 10% FBS, 2 mM L-glutamine, 200 ug/ml Hygromycin B, and 15 ug/ml blasticidin.
For cAMP assays, cells are plated on 96 well plates (e.g., BD Falcon: REF 353948, black side, clear bottom, TC surface) at a density of about 4.5×10^4 cells per well in growth medium containing 1.0 ug/ml tetracycline (1.0 mg/ml stock). The cells are then incubated for 48 hours at 37° C.
Following the incubation, the growth medium is removed from the wells and the wells rinsed (once) with the assay buffer included in the HITHUNTER® cAMP kit (100 μl/well). Following the wash, 20 μl of assay buffer is added to each well, followed by addition of 10 μl of a 3× concentration compound working solution. The solution is then mixed. The final concentration range of compound is from about 10^−5M to about 10^−11 M. The reagents are then incubated at 37° C. at 5% CO2 for 1 hour.
The manufacturer's protocol may be followed for cAMP determination. The HITHUNTER® cAMP kit protocol is outlined for the HIT-T15 cAMP assays described above.
Compounds of the present invention were tested in the Human Tet-inducible cAMP assay described immediately above and the results shown in Table 1 below were obtained.

EC50 | SMILES
4600 nM | CC(=O)c1cnc(N2CCC(Oc3cnn(-c4ccc(S(C)(=O)=O)cc4)c(=O)c3)CC2)nc1 [Example 11, 5-(1-(5-Acetylpyrimidin-2-yl)piperidin-4-yloxy)-2-(4-(methylsulfonyl)phenyl)pyridazin-3(2H)-one]
3390 nM | CC(C)(C)OC(=O)N1CCC(Oc2cc(=O)n(-c3ccc(Cl)c(Cl)c3)nc2C(N)=O)CC1 [Example 16, tert-Butyl 4-(3-carbamoyl-1-(3,4-dichlorophenyl)-6-oxo-1,6-dihydropyridazin-4-yloxy)piperidine-1-carboxylate]
5 nM | N#Cc1nn(-c2ccc(Cl)c(Cl)c2)c(=O)cc1OC1CCN(c2ncc(C(F)(F)F)cn2)CC1 [Example 26, 1-(3,4-Dichlorophenyl)-6-oxo-4-(1-(5-(trifluoromethyl)pyrimidin-2-yl)piperidin-4-yloxy)-1,6-dihydropyridazine-3-carbonitrile]
83 nM | CC(C)(C)OC(=O)N1CCC(Oc2cc(=O)n(-c3ccc(S(C)(=O)=O)cc3)nc2C#N)CC1 [Example 31, tert-Butyl 4-(3-cyano-1-(4-(methylsulfonyl)phenyl)-6-oxo-1,6-dihydropyridazin-4-yloxy)piperidine-1-carboxylate]
95 nM | CC(C)(C)OC(=O)N1CCC(Oc2cc(=O)n(-c3ccc(Br)c(F)c3)nc2C#N)CC1 [Example 45, tert-Butyl 4-(1-(4-bromo-3-fluorophenyl)-3-cyano-6-oxo-1,6-dihydropyridazin-4-yloxy)piperidine-1-carboxylate]

SMILES | EC50
COC(=O)c1nn(-c2ccc(S(C)(=O)=O)cc2)c(=O)cc1OC1CCN(C(=O)OC(C)(C)C)CC1 [Example 18, Methyl 4-(1-(tert-butoxycarbonyl)piperidin-4-yloxy)-1-(4-(methylsulfonyl)phenyl)-6-oxo-1,6-dihydropyridazine-3-carboxylate] | 4010 nM
CC(C)(C)OC(=O)N1CCC(Oc2cc(=O)n(-c3ccc(C#N)c(F)c3)nc2C#N)CC1 [Example 34, tert-Butyl 4-(3-cyano-1-(4-cyano-3-fluorophenyl)-6-oxo-1,6-dihydropyridazin-4-yloxy)piperidine-1-carboxylate] | 3 nM
CCCc1cnc(N2CCC(Oc3cc(=O)n(-c4ccc(C#N)c(F)c4)nc3C#N)CC2)nc1 [Example 38, 1-(4-Cyano-3-fluorophenyl)-6-oxo-4-(1-(5-propylpyrimidin-2-yl)piperidin-4-yloxy)-1,6-dihydropyridazine-3-carbonitrile] | 8 nM
COC(=O)c1nn(-c2ccc(C#N)c(F)c2)c(=O)cc1OC1CCN(c2ncc(Br)cn2)CC1 [Example 42, Methyl 4-(1-(5-bromopyrimidin-2-yl)piperidin-4-yloxy)-1-(4-cyano-3-fluorophenyl)-6-oxo-1,6-dihydropyridazine-3-carboxylate] | 107 nM
